Here are results for 2 compounds from paper PMC11662004 (Communications Chemistry, 2024).

Where “and” joins values, the source holds several entries; their conditions need not be identical. Equal entries are not always repeated. Where two headings read alike, the source gives them in different places.

This data set has as its target T1, NgTet1 (Naegleria gruberi, UniProt D2W6T1).
T1 construct: His6-tagged full-length Naegleria gruberi NgTet1 (321 a. a.) protein with a thrombin cleavage site; made in house; host or cells: E. coli BL21(DE3)
T1 sequence (D2W6T1 1-321): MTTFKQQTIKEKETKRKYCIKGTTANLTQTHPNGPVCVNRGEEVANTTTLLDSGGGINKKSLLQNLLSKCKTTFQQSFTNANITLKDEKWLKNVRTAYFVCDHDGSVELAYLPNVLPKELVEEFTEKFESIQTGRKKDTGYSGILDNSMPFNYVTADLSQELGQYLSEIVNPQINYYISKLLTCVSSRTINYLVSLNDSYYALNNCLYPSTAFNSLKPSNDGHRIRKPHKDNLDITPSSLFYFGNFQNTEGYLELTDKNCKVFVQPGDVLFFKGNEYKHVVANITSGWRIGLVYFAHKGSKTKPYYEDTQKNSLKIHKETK
The data set is described as follows: biochemical. The settings on record: for normalised activity: NgTet1, NMR, 2 independent replicates; for IC50: 5 μM NgTet1, 50 μM 2OG; for normalised activity, %: NMR. On the procedure: Activity was normalised against reactions containing vehicle (DMSO). […] AS data shown as the mean of three experimental replicates (n = 3; mean ± SD); ^1H NMR data plotted from two independent replicates (n = 2); tabulated data reported as the mean of two and three independent replicates for ^1H NMR and AS, respectively (n = 2–3, SD reported for n = 3). N. d.: not determined; AS: AlphaScreen.
All ^1H NMR spectra were recorded at 25 °C using D2O as a reference for internal deuterium lock on a Bruker Avance III 700 MHz equipped with an inverse TCI cryoprobe in 3 or 5 mm diameter tubes with a total sample volume of 160 or 565 μL, respectively. The water signal was reduced using Perfect Echo excitation sculpting suppression. Chemical shifts are reported in ppm relative to D2O (δH = 4.70 ppm).
NgTet1 was pre-incubated with inhibitor dilution series in DMSO-d6 at room temperature for 10 min (50 mM Tris-d11 [pH 7.5], 2% v/v DMSO-d6). Reactions were initiated by the addition of appropriate cofactors and DNA. […] The reactions were quenched by the addition of 9 mM NOG and 9 mM ZnCl2 in 90 mM Tris-d11 [pH 7.5] (20 μL) within the enzyme linear activity window (determined in Figure. S10). Samples were transferred to NMR tubes and subjected to ^1H NMR analysis. Data were processed as described above. Inhibition data was normalised to reactions containing vehicle only (1% v/v DMSO-d6) and fitted using “log(inhibitor) vs. response - Variable slope (four parameters)” non-linear regression model on GraphPad Prism 5.
Activity was normalised against reactions containing vehicle only (100% activity). Data is shown as the mean of 2 independent replicates (n = 2; […]
Fig. S10 Determination of linear NgTet1 enzymatic activity windows for inhibitor characterisation. a 1H NMR succinate detection time courses with no DNA, 5HC DNA (double- […]
complementary 5'-ACC AC5mC GGT GGT-3'). b AlphaScreen 5hmC detection time course using […]
courses shown. 1H NMR reaction conditions: 5 μM NgTet1, 2 mM sodium L-ascorbate, 100 μM […]
v/v D2O. DNA was added to a final concentration of 20 μM of double-stranded DNA. […]

On to “5HC DNA: non-methylated DNA of the same sequence, 5'-ACC ACC GGT GGT-3', non-substrate (DNA ACCACCGGTGGT; DNA, backbone not given here)”, for which, where the note is “1.2 equivalents (6.17 μM) of ligand, no 5mC DNA substrate”, the “uncoupled 2OG decarboxylase activity relative to control” value worked out at 188%. Besides, the normalised activity (-Log[inhibitor] (M) 3.77815) is 173.555% and 199.834%; the normalised activity (-Log[inhibitor] (M) 4.25527) was 239.054% and 238.734%; the normalised activity (-Log[inhibitor] (M) 4.73239) is 235.651% and 234.615%; the normalised activity (-Log[inhibitor] (M) 5.20951) is 188.852% and 186.764%; the normalised activity (-Log[inhibitor] (M) 5.68664) was 131.036% and 130.504%; the normalised activity (-Log[inhibitor] (M) 6.16376) is 99.9166% and 102.373%. Besides, the normalised activity reads like this: (-Log[inhibitor] (M) 6.64088) 99.5022% and 101.543%; (-Log[inhibitor] (M) 7.118) 100.648% and 101.556%; (-Log[inhibitor] (M) 7.59512) 99.7851% and 102.052%; (-Log[inhibitor] (M) 8.07224) 101.874% and 100.284%.
One may read the IC50 as the concentration that gives 50% inhibition. Consider `O=C(O)CNC(=O)C(=O)O` [NOG, N-oxalylglycine], for which the “potency reduced in the presence of non-substrate 5HC DNA” value (1H NMR, uncoupled 2OG turnover) was 5 fold. The IC50 runs as follows: (2OG decarboxylation with 20 µM 5HC DNA, read-out: IC50, 5HC DNA, NMR) 23.4 µM; (2OG decarboxylation with 20 µM 5mC DNA, read-out: IC50, 5mC DNA, NMR) 4.9 µM; (uncoupled 2OG decarboxylation, no DNA, read-out: IC50, No DNA, NMR) 118 µM. Further, the “normalised activity, %” value is 9.08% and 0% (5HC DNA, -Log[inhibitor] (M) 3); 14.96% and 8.89% (5HC DNA, -Log[inhibitor] (M) 3.5); 27.44% and 19.98% (5HC DNA, -Log[inhibitor] (M) 4); 46.19% and 37.58% (5HC DNA, -Log[inhibitor] (M) 4.5); 68.86% and 59.35% (5HC DNA, -Log[inhibitor] (M) 5); 85.6% and 77.94% (5HC DNA, -Log[inhibitor] (M) 5.5). Moreover, the “normalised activity, %” value reads like this: (5HC DNA, -Log[inhibitor] (M) 6) 94.01% and 91.73%; (5HC DNA, -Log[inhibitor] (M) 6.5) 98.78% and 94.75%; (5HC DNA, -Log[inhibitor] (M) 7) 98.78% and 99.12%; (5HC DNA, -Log[inhibitor] (M) 7.5) 97.21% and 98.4%; (5mC DNA, -Log[inhibitor] (M) 2.47712) 3.86% and 2.962%; (5mC DNA, -Log[inhibitor] (M) 2.95424) 3.763% and 4.321%. Moreover, the “normalised activity, %” value is 5.679% and 6.122% (5mC DNA, -Log[inhibitor] (M) 3.43136); 9.059% and 9.958% (5mC DNA, -Log[inhibitor] (M) 3.90849); 18.3792% and 18.5451% (5mC DNA, -Log[inhibitor] (M) 4.38561); 32.2896% and 33.1008% (5mC DNA, -Log[inhibitor] (M) 4.86273); 53.2739% and 54.7766% (5mC DNA, -Log[inhibitor] (M) 5.33985); 75.7036% and 73.0834% (5mC DNA, -Log[inhibitor] (M) 5.81697). For the same compound, the “normalised activity, %” value by setting is: (5mC DNA, -Log[inhibitor] (M) 6.29409) 86.8413% and 87.2847%; (5mC DNA, -Log[inhibitor] (M) 6.77) 92.8024% and 96.8118%; (5mC DNA, -Log[inhibitor] (M) 7.25) 100.282% and 100.776%; (5mC DNA, -Log[inhibitor] (M) 7.73) 99.5779% and 101.189%; (No DNA, -Log[inhibitor] (M) 2) 1.894% and 2.62%; (No DNA, -Log[inhibitor] (M) 2.47712) 5.905% and 12.6681%. In addition, the “normalised activity, %” value runs as follows: (No DNA, -Log[inhibitor] (M) 3.43136) 23.7146% and 37.124%; (No DNA, -Log[inhibitor] (M) 3.90849) 40.5302% and 59.4882%; (No DNA, -Log[inhibitor] (M) 4.38561) 74.4281% and 76.6397%; (No DNA, -Log[inhibitor] (M) 4.86273) 97.4209% and 83.0858%; (No DNA, -Log[inhibitor] (M) 5.33985) 104.499% and 99.5811%; (No DNA, -Log[inhibitor] (M) 5.81697) 103.384% and 101.173%. For the same compound, the “normalised activity, %” value (No DNA, -Log[inhibitor] (M) 6.29409) is 102.321% and 96.0908%. In addition, the “potency improved relative to AS assay” value (5mC DNA substrate-saturating conditions, 1H NMR) is recorded as 40 fold.
